We go through one molecule from publication PMC3459575 (Clinical Interventions in Aging, 2012).

The target in assay [1] is T1, 5α-reductase type 2 (Homo sapiens, UniProt P31213).
T1 sequence (P31213 1-254): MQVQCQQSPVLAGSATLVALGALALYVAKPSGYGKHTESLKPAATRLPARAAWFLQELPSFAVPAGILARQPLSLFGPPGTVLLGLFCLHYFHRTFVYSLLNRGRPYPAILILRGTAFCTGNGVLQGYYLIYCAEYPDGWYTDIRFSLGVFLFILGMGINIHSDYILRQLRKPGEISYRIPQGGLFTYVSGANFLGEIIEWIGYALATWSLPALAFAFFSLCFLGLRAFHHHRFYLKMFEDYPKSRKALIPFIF
The assay is classed as cell-based.

The target in assay [2] is T2, 5α-reductase type 1 (Homo sapiens, UniProt P18405).
T2 sequence (P18405 1-259): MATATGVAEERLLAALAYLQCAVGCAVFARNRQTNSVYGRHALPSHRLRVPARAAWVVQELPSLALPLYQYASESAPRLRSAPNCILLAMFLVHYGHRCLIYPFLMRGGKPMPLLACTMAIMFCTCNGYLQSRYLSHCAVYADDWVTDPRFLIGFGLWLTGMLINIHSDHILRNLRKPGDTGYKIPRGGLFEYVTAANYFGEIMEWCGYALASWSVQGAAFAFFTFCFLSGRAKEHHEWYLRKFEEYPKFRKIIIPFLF
The assay is classed as cell-based.

Take `CC(C)(C)NC(=O)[C@H]1CC[C@H]2[C@@H]3CC[C@H]4NC(=O)C=C[C@]4(C)[C@H]3CC[C@]12C` [finasteride]: the IC50 in assay [1] is approximately 0.1 µM; in assay [2], approximately 0.8 µM.

What is called IC50 is the concentration that inhibits the measured activity by half. Higher therefore signals weaker potency in that assay.
